# Data from US20240327393A1 (SIRONAX LTD., priority 2021, published 2024).
# System: HT-1080 (ATCC, CCL-121) cells
# Test: HT-1080 cell viability assay with ferroptosis inducer RSL3 (Cell Titer-Glo)
# Type: cell-based
# Details: Homo sapiens; HT-1080 cells treated with RSL3; 3-fold, 10-point dilution, 1.1 μM highest concentration; Table 2; read-out: EC50 (nM), ferroptosis inhibitory activity
# In short: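 HT-1080 cells (6000 per well) were cultured overnight at 37 °C, then co-treated with RSL3 and compound in a 3-fold, 10-point series topping at 1.1 μM. Viability was read by CellTiter-Glo luminescence and normalized to untreated controls. EC50 came from a sigmoidal non-linear regression fit.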
row,EC50,Structure (SMILES)
1,0.1 to 100 nM,"CC1CCN(c2ccc(Nc3ccc4c(=O)n(C)n(C)c4c3)cc2)CC1 [Compound 250, 1,2-dimethyl-6-((4-(4-methylpiperidin-1-yl)phenyl)amino)-1,2-dihydro-3H-indazol-3-one]"
2,0.1 to 100 nM,"CC1CCN(c2ccc(Nc3ccc4c(=O)n(C)[nH]c4c3)cc2)CC1 [Compound 251, 2-methyl-6-((4-(4-methylpiperidin-1-yl)phenyl)amino)-1,2-dihydro-3H-ind azol-3-one]"
3,0.1 to 100 nM,"CCn1[nH]c2cc(Nc3ccc(N4CCC(C(F)(F)F)CC4)cc3)ccc2c1=O [Compound 252, 2-ethyl-6-((4-(4-(trifluoromethyl)piperidin-1-yl)phenyl)amino)-1,2-dihydro-3H-indazol-3-one]"
4,0.1 to 100 nM,"CC1CCC(C)N1c1ccc(Nc2ccc3c(c2)n(C)c(=O)n3C)cc1 (stereo not shown) [Compound 254, 5-((4-(2,5-dimethylpyrrolidin-1-yl)phenyl)amino)-1,3-dimethyl-1,3-dihydro-2H-benzo[d]imidazol-2-one]"
5,0.1 to 100 nM,"CC1CCN(c2ccc(Nc3cc4c(c([N+](=O)[O-])c3)CN(C(=O)C(F)(F)F)C4)cc2)CC1 [Compound 255, 2,2,2-trifluoro-1-(6-((4-(4-methylpiperidin-1-yl)phenyl)amino)-4-nitroisoindolin-2-yl)ethan-1-one]"
6,0.1 to 100 nM,"CCCCCN(CC)c1ccc(Nc2ccc3c(c2)n(C)c(=O)n3C)cc1 [Compound 260, 5-((4-(ethyl(pentyl)amino)phenyl)amino)-1,3-dimethyl-1,3-dihydro-2H-benzo[d]imidazol-2-one]"
7,0.1 to 100 nM,"Cn1c(=O)n(C)c2cc(Nc3ccc(C(C)(C)C)cc3)ccc21 [Compound 261, 5-((4-(tert-butyl)phenyl)amino)-1,3-dimethyl-1,3-dihydro-2H-benzo[d]imidazol-2-one]"

# Continued, compound first:
row,Structure (SMILES),EC50
1,"CN1CCC(N2Cc3cc(Nc4ccc(N5CCC(C)(C)CC5)cc4)ccc3C2=O)CC1 [Compound 247, 5-((4-(4,4-dimethylpiperidin-1-yl)phenyl)amino)-2-(1-methylpiperidin-4-yl)isoindolin-1-one]",0.1 to 100 nM
2,"Cn1cncc1CN1Cc2cc(Nc3ccc(N4CCC(C(F)(F)F)CC4)cc3)ccc2C1=O [Compound 248, 2-((1-methyl-1H-imidazol-5-yl)methyl)-5-((4-(4-(trifluoromethyl)piperidin-1-yl)phenyl)amino)isoindolin-1-one]",0.1 to 100 nM
3,"CC1CCN(c2ccc(Nc3ccc4c(c3)CN(C3CCN(C)CC3)C4=O)cc2)CC1 [Compound 249, 5-((4-(4-methylpiperidin-1-yl)phenyl)amino)-2-(1-methylpiperidin-4-yl) isoindolin-1-one]",0.1 to 100 nM
4,"CC1CCN(c2ccc(Nc3cc(Cl)c4c(c3)CN(C(=O)C(F)(F)F)C4)cc2)CC1 [Compound 253, 1-(4-chloro-6-((4-(4-methylpiperidin-1-yl)phenyl)amino)isoindolin-2-yl)-2,2,2-trifluoroethan-1-one]",0.1 to 100 nM
5,Cn1c(=O)oc2cc(Nc3ccc(N4CCC(C(F)(F)F)CC4)cc3)ccc21 [Compound 256],0.1 to 100 nM
6,"Cn1[nH]c2cc(Nc3ccc(N4CCCCC4)cc3)ccc2c1=O [Compound 257, 2-methyl-6-((4-(piperidin-1-yl)phenyl)amino)-1,2-dihydro-3H-indazol-3-one]",0.1 to 100 nM
7,"O=C1c2ccc(Nc3ccc(N4CCC(C(F)(F)F)CC4)cc3)cc2CN1C1CCOCC1 [Compound 258, 2-(tetrahydro-2H-pyran-4-yl)-5-((4-(4-(trifluoromethyl)piperidin-1-yl)phenyl)amino)isoindolin-1-one]",0.1 to 100 nM
8,"CC1CCC(C)N1c1ccc(Nc2ccc3c(=O)n(C)[nH]c3c2)cc1 (stereo not shown) [Compound 259, 6-((4-(2,5-dimethylpyrrolidin-1-yl)phenyl)amino)-2-methyl-1,2-dihydro-3H-indazol-3-one]",0.1 to 100 nM
9,"CCN(CCCOC)c1ccc(Nc2ccc3c(c2)n(C)c(=O)n3C)cc1 [Compound 262, 5-((4-(ethyl(3-methoxypropyl)amino)phenyl)amino)-1,3-dimethyl-1,3-dihydro-2H-benzo[d]imidazol-2-one]",0.1 to 100 nM
